The structures appear in SMILES notation. “Also recorded” adds a separate entry of the source.

The text below walks through data of patent US11390629B2, “1,5-disubstituted 1,2,3-triazoles are inhibitors of Rac/Cdc42 GTPases” (UNIVERSITY OF PUERTO RICO, priority 2016, dated 2022).

Experiment [1] deals with Cdc42 (Homo sapiens, UniProt P60953). Nature of the experiment: G-LISA Cdc42 activity, GFP-HER2-BM cells. In kind it is cell-based. Set-up: endogenous in cells; host or cells: MDA-MB-231. Particulars: 250 nM, 24 h.
The test system of experiment [2] is Rac.
Experiment [3] has as its system caspase-3/7 activity in MDA-MB-231 cells. Nature of the experiment: Caspase-Glo 3/7 apoptosis assay. Particulars: 0-1000 nM, 24 h, MDA-MB-231 and GFP-HER2-BM. The format is cell-based, human. As to the method:
Effect of MBQ-167 on cell survival.
To evaluate whether the cell cycle arrest was accompanied by an increase in apoptosis, the activity of the effector caspases3/7 in whole cell populations (both attached and detached). […] To determine whether MBQ-167 induces anoikis, the relative levels of caspase-3/7 activities were analyzed in the attached and detached MDA-MB-231 cell populations following 24 h at 250 nM MBQ-167.
Apoptosis was measured using a Caspase-Glo3/7 Luminescence Assay Kit as per manufacturer's instructions (Promega, Corp., Madison, Wis., USA). Following treatment of equal numbers of cells with vehicle or MBQ-167 for 24 h, Caspase-3/7 Glo reagent was added and incubated at room temperature for 60 min. Caspase-3/7 activities were determined by quantifying luminescence.

Sequence of Cdc42 (P60953 whole entry): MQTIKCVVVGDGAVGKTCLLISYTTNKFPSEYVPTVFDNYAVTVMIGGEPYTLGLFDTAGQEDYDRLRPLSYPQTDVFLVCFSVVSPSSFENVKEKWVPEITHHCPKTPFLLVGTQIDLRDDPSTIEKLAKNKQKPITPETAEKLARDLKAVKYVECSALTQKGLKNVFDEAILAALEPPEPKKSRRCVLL

Consider `CCn1c2ccccc2c2cc(-n3nncc3-c3ccccc3)ccc21` [I-1, 9-ethyl-3-(5-phenyl-1H-1,2,3-triazol-1-yl)-9H-carbazole], for which, in experiment [1], the “effect on Cdc42 activity” value was “inhibits”. Further, the “Rac Activity (Active Rac/Total Rac)” value in experiment [2] (250 nM, 24 h, MCF-7 cells, vehicle = 1.0) stood at 1.075 ± 0.3. In addition, the “effect on Rac activity” value in experiment [2] (MCF-7, 250 nM, listed as MBQ-167) is listed as “insensitive; also recorded: does not affect”. In addition, the “caspase-3/7 activity in whole cell populations” value in experiment [3] is “dose-dependent increase”.
